Experiments:
[1] = Inhibition of UV-induced lipid peroxidation of phospholipid liposomes (antioxidant test, malonaldehyde); assay type: biochemical; conditions: lecithin liposomes, UV light for 4 hours
Method: Unsaturated fatty acids are present in the phospholipids of cell membranes. Their oxidation compromises membrane integrity and also leads to the generation of breakdown products that are damaging to other important cellular components such as proteins and nucleic acids. Since the skin is exposed to large doses of UV light from the sun, UV-induced peroxidation is a significant route of oxidant damage. […] The left column of Table 2 lists the compounds that were tested, while the right column lists each corresponding compound the effective concentration that inhibits oxidation by 50%. The assay was performed by irradiating a suspension of lecithin liposomes with UV light for 4 hours in the absence of or in the presence of the different compounds listed in the table. […] The rate of lipid oxidation was calculated from the increase in malonaldehyde content.

[2] = molecular target: T1, human neutrophil elastase (Homo sapiens, UniProt P08246); test: Neutrophil elastase inhibition, chromogenic substrate assay; assay type: biochemical
T1 construct: purchased Athens Research and Technology, GA
T1 sequence (P08246 30-267): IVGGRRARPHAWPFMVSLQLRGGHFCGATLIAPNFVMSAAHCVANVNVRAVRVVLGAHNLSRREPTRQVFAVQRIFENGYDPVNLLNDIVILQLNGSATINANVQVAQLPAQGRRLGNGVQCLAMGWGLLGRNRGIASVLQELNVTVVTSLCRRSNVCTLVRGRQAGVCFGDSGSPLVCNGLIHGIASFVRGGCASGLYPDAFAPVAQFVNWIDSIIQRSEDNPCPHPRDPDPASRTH
Source text: In combination, these three enzymes are capable of extensively degrading all of the protein components of the extracellular matrix (ECM) including collagens I and III (the major collagen types in the skin), elastin and the various glycoprotein components (e.g., fibronectin). Elevated expression of these proteases is triggered by inflammatory stimuli such as UV light, and their activity results in ECM damage that is a major component of skin aging.
Ursolic acid is a powerful inhibitor of elastase activity. The inhibition activity of ursolic acid was tested by incubating it with a human neutrophil elastase sample (obtained from Athens Research and Technology, GA) for 10 minutes with a chromogenic substrate, given below. The change in optical density of the substrate at 405 nm was recorded one reading per minute at room temperature reaction mixtures in a 96-well plate. The reaction mixture contains 300 µg/ml methoxysuccinyl-Ala-Ala-Pro-Val-pNA (chromogenic substrate); […] human neutrophil elastase at concentrations in the range 0.55%-3.3%; 70 mM Tris-HCl (pH 8); and 200 mM NaCl.
The % inhibition is calculated relative to the no-sample control.

O=C(O[C@@H]1Cc2c(O)cc(O)cc2O[C@@H]1c1cc(O)c(O)c(O)c1)c1cc(O)c(O)c(O)c1 [Epigallocatechin gallate (EGCG), Epigallocatechin gallate]
EC50 (concentration that inhibits oxidation by 50%) [1]: 0.0003 % w/w

CC(=O)Oc1c(C)c(C)c2c(c1C)CCC(C)(CCC[C@H](C)CCC[C@H](C)CCCC(C)C)O2 (some centres unmarked) [Vitamin E acetate]
EC50 (concentration that inhibits oxidation by 50%) [1]: 0.022 % w/w

C[C@H]1[C@H](C)CC[C@]2(C(=O)O)CC[C@]3(C)C(=CC[C@@H]4[C@@]5(C)CC[C@H](O)C(C)(C)[C@@H]5CC[C@]43C)[C@H]12 [Ursolic Acid, Ursolic acid]
Elastase Inhibition (%) ([2]; concentration 0.0004 %): 26% | Elastase Inhibition (%) ([2]; concentration 0.0008 %): 44% | Elastase Inhibition (%) ([2]; concentration 0.0012 %): 58% | Elastase Inhibition (%) ([2]; concentration 0.002 %): 72% | Elastase Inhibition (%) ([2]; concentration 0.004 %): 81% | Elastase Inhibition (%) ([2]; concentration 0.006 %): 84% | Elastase Inhibition (%) ([2]; concentration 0.01 %): 86% | IC50 value for elastase inhibition ([2]; human neutrophil elastase, chromogenic substrate, Example 4): about 0.0008%

O=C1O[C@H]([C@@H](O)CO)C(O)=C1O [Vitamin C (Ascorbic Acid), Ascorbic Acid]
EC50 (concentration that inhibits oxidation by 50%) [1]: 0.002 % w/w

Reference: patent US20060275229A1, “Skin care active complex and methods of using same” (priority 2005, published 2006)
